# Measured values: patent publication US20210363254A1, “PHARMACEUTICAL COMBINATIONS” (Novartis AG, priority 2018, published 2021)
# Like-named read-outs stand apart in the source and are kept apart here.
smiles,measurement,setting,value
"COc1ncc(-c2nc3c(n2C(C)C)[C@H](c2ccc(Cl)cc2)N(c2cc(Cl)cn(C)c2=O)C3=O)c(OC)n1 [HDM201, (S)-5-(5-Chloro-1-methyl-2-oxo-1,2-dihydro-pyridin-3-yl)-6-(4-chloro-phenyl)-2-(2,4-dimethoxy-pyrimidin-5-yl)-1-isopropyl-5,6-dihydro-1H-pyrrolo[3,4-d]imidazol-4-one]","Hyperkalaemia, Grade 3/4","1B 200 mg, N=3",0 n (%)
same,"Hypocalcaemia, All Grades","1B 200 mg, N=3",0 n (%)
same,"Hypocalcaemia, Grade 3/4","1B 200 mg, N=3",0 n (%)
same,"Influenza Like Illness, All Grades","1B 200 mg, N=3",0 n (%)
same,"Influenza Like Illness, Grade 3/4","1B 200 mg, N=3",0 n (%)
same,"Lethargy, All Grades","1B 200 mg, N=3",0 n (%)
same,"Lethargy, Grade 3/4","1B 200 mg, N=3",0 n (%)
same,"Leukopenia, All Grades","1B 200 mg, N=3",0 n (%)
same,"Leukopenia, Grade 3/4","1B 200 mg, N=3",0 n (%)
same,"Lipase Increased, All Grades","1B 200 mg, N=3",1 (33.3) n (%)
same,"Lipase Increased, Grade 3/4","1B 200 mg, N=3",1 (33.3) n (%)
same,"Lymphopenia, All Grades","1B 200 mg, N=3",0 n (%)
same,"Lymphopenia, Grade 3/4","1B 200 mg, N=3",0 n (%)
same,"Monocytosis, All Grades","1B 200 mg, N=3",0 n (%)
same,"Monocytosis, Grade 3/4","1B 200 mg, N=3",0 n (%)
same,"Musculoskeletal Pain, All Grades","1B 200 mg, N=3",0 n (%)
same,"Musculoskeletal Pain, Grade 3/4","1B 200 mg, N=3",0 n (%)
same,"Myalgia, All Grades","1B 200 mg, N=3",0 n (%)
same,"Myalgia, Grade 3/4","1B 200 mg, N=3",0 n (%)
same,"Nausea, All Grades","1B 200 mg, N=3",1 (33.3) n (%)
same,"Nausea, Grade 3/4","1B 200 mg, N=3",0 n (%)
same,"Neuralgia, All Grades","1B 200 mg, N=3",0 n (%)
same,"Neuralgia, Grade 3/4","1B 200 mg, N=3",0 n (%)
same,"Neutropenia, All Grades","1B 200 mg, N=3",0 n (%)
same,"Neutropenia, Grade 3/4","1B 200 mg, N=3",0 n (%)
same,"Neutrophil Count Decreased, All Grades","1B 200 mg, N=3",0 n (%)
same,"Neutrophil Count Decreased, Grade 3/4","1B 200 mg, N=3",0 n (%)
same,"Oedema, All Grades","1B 200 mg, N=3",1 (33.3) n (%)
same,"Oedema, Grade 3/4","1B 200 mg, N=3",0 n (%)
same,"Oral Candidiasis, All Grades","1B 200 mg, N=3",0 n (%)
same,"Oral Candidiasis, Grade 3/4","1B 200 mg, N=3",0 n (%)
same,"Platelet Count Decreased, All Grades","1B 200 mg, N=3",0 n (%)
same,"Platelet Count Decreased, Grade 3/4","1B 200 mg, N=3",0 n (%)
same,"Pruritus, All Grades","1B 200 mg, N=3",0 n (%)
same,"Pruritus, Grade 3/4","1B 200 mg, N=3",0 n (%)
same,"Thrombocytopenia, All Grades","1B 200 mg, N=3",0 n (%)
same,"Thrombocytopenia, Grade 3/4","1B 200 mg, N=3",0 n (%)
same,"Total, All Grades","1B 200 mg, N=3",3 (100) n (%)
same,"Total, Grade 3/4","1B 200 mg, N=3",1 (33.3) n (%)
same,"Vomiting, All Grades","1B 200 mg, N=3",0 n (%)
same,"Vomiting, Grade 3/4","1B 200 mg, N=3",0 n (%)
same,"Weight Decreased, All Grades","1B 200 mg, N=3",0 n (%)
same,"Weight Decreased, Grade 3/4","1B 200 mg, N=3",0 n (%)
same,"White Blood Cell Count Decreased, All Grades","1B 200 mg, N=3",0 n (%)
same,"White Blood Cell Count Decreased, Grade 3/4","1B 200 mg, N=3",0 n (%)
same,"Abdominal Pain, All Grades","1B all subjects, N=20",3 n (%)
same,"Abdominal Pain, Grade 3/4","1B all subjects, N=20",0 n (%)
same,"Alanine Aminotransferase Increased, All Grades","1B all subjects, N=20",1 n (%)
same,"Alanine Aminotransferase Increased, Grade 3/4","1B all subjects, N=20",0 n (%)
same,"Alopecia, All Grades","1B all subjects, N=20",1 n (%)
same,"Alopecia, Grade 3/4","1B all subjects, N=20",0 n (%)
same,"Amylase Increased, All Grades","1B all subjects, N=20",1 n (%)
same,"Amylase Increased, Grade 3/4","1B all subjects, N=20",0 n (%)
same,"Anaemia, All Grades","1B all subjects, N=20",5 n (%)
same,"Anaemia, Grade 3/4","1B all subjects, N=20",0 n (%)
same,"Asthenia, All Grades","1B all subjects, N=20",2 n (%)
same,"Asthenia, Grade 3/4","1B all subjects, N=20",0 n (%)
same,"Blood Bilirubin Increased, All Grades","1B all subjects, N=20",1 n (%)
same,"Blood Bilirubin Increased, Grade 3/4","1B all subjects, N=20",0 n (%)
same,"Blood Creatine Phosphokinase Increased, All Grades","1B all subjects, N=20",2 n (%)
same,"Blood Creatine Phosphokinase Increased, Grade 3/4","1B all subjects, N=20",1 n (%)
same,"Blood Creatinine Increased, All Grades","1B all subjects, N=20",2 n (%)
same,"Blood Creatinine Increased, Grade 3/4","1B all subjects, N=20",0 n (%)
same,"Decreased Appetite, All Grades","1B all subjects, N=20",4 n (%)
same,"Decreased Appetite, Grade 3/4","1B all subjects, N=20",0 n (%)
same,"Dehydration, All Grades","1B all subjects, N=20",1 n (%)
same,"Dehydration, Grade 3/4","1B all subjects, N=20",0 n (%)
same,"Diarrhoea, All Grades","1B all subjects, N=20",5 n (%)
same,"Diarrhoea, Grade 3/4","1B all subjects, N=20",0 n (%)
same,"Dry Skin, All Grades","1B all subjects, N=20",1 n (%)
same,"Dry Skin, Grade 3/4","1B all subjects, N=20",0 n (%)
same,"Dysgeusia, All Grades","1B all subjects, N=20",1 n (%)
same,"Dysgeusia, Grade 3/4","1B all subjects, N=20",0 n (%)
same,"Eye Pain, All Grades","1B all subjects, N=20",1 n (%)
same,"Eye Pain, Grade 3/4","1B all subjects, N=20",0 n (%)
same,"Fatigue, All Grades","1B all subjects, N=20",4 n (%)
same,"Fatigue, Grade 3/4","1B all subjects, N=20",1 n (%)
same,"Folliculitis, All Grades","1B all subjects, N=20",1 n (%)
same,"Folliculitis, Grade 3/4","1B all subjects, N=20",0 n (%)
same,"Gamma-Glutamyltransferase Increased, All Grades","1B all subjects, N=20",1 n (%)
same,"Gamma-Glutamyltransferase Increased, Grade 3/4","1B all subjects, N=20",0 n (%)
same,"Headache, All Grades","1B all subjects, N=20",1 n (%)
same,"Headache, Grade 3/4","1B all subjects, N=20",0 n (%)
same,"Hyperkalaemia, All Grades","1B all subjects, N=20",1 n (%)
same,"Hyperkalaemia, Grade 3/4","1B all subjects, N=20",0 n (%)
same,"Hypocalcaemia, All Grades","1B all subjects, N=20",1 n (%)
same,"Hypocalcaemia, Grade 3/4","1B all subjects, N=20",0 n (%)
same,"Influenza Like Illness, All Grades","1B all subjects, N=20",1 n (%)
same,"Influenza Like Illness, Grade 3/4","1B all subjects, N=20",0 n (%)
same,"Lethargy, All Grades","1B all subjects, N=20",1 n (%)
same,"Lethargy, Grade 3/4","1B all subjects, N=20",0 n (%)
same,"Leukopenia, All Grades","1B all subjects, N=20",2 n (%)
same,"Leukopenia, Grade 3/4","1B all subjects, N=20",1 n (%)
same,"Lipase Increased, All Grades","1B all subjects, N=20",4 n (%)
same,"Lipase Increased, Grade 3/4","1B all subjects, N=20",3 n (%)
same,"Lymphopenia, All Grades","1B all subjects, N=20",2 n (%)
same,"Lymphopenia, Grade 3/4","1B all subjects, N=20",1 n (%)
same,"Monocytosis, All Grades","1B all subjects, N=20",1 n (%)
same,"Monocytosis, Grade 3/4","1B all subjects, N=20",0 n (%)
same,"Musculoskeletal Pain, All Grades","1B all subjects, N=20",1 n (%)
same,"Musculoskeletal Pain, Grade 3/4","1B all subjects, N=20",0 n (%)
same,"Myalgia, All Grades","1B all subjects, N=20",1 n (%)
same,"Myalgia, Grade 3/4","1B all subjects, N=20",0 n (%)
same,"Nausea, All Grades","1B all subjects, N=20",12 n (%)
